Test results from patent US9708359B2, “Pyrrolopyrimidine nucleosides and analogs thereof” (Chimerix, Inc., priority 2015, dated 2017).

What was measured:
[1] = Parallel cytotoxicity assay in A549 cells; assay type: cell-based; conditions: human, parallel to AdV assay
Procedure: Every antiviral assay included a parallel cytotoxicity assay with the same cells used for each virus, the same cell number, the same drug concentrations, and the same incubation times to provide the same drug exposure. To ensure that the cytotoxicity of all compounds could be compared directly, a standard neutral red uptake cytotoxicity assay for all compounds in confluent HFF cells with a 7 d incubation period was performed.
The primary screen was a cytopathic effect (CPE) reduction assay. Briefly, cultures of cells were infected with virus in the presence of test compounds and incubated for 4-7 days (depending on the specific virus/cells). […] Therefore, antiviral effect, or cytoprotection, was observed when compounds prevent virus replication. […] Cytoprotection and compound cytotoxicity were assessed by MTS dye reduction. The percent reduction in viral CPE (antiviral activity) and percent cell viability (cytotoxicity) were determined and reported.
The primary screen was a cytopathic effect (CPE) reduction assay. […] Cytoprotection and compound cytotoxicity were assessed by MTS (CellTiter®96 Reagent, Promega, Madison Wis.) dye reduction. The percent reduction in viral CPE (antiviral activity) and percent cell viability (cytotoxicity) were determined and reported.

human norovirus = experiment: Efficacy of Compound 1 Against Human Norovirus (viral titer); assay type: cell-based; conditions: cells pretreated with 25 μM compound for two hours; duplicate (FIGS. 4-6)
Procedure: The efficacy of compound 1 for inhibiting norovirus was compared to DMSO (as a control), compound 2, and 2′-C-methylcytidine triphosphate (2′CmeC TP). Cells were pretreated with 25 μM of experimental compound for two hours. Virus inoculum was added for two hours, and unbound virus washed off and fresh media and fresh experimental compound was added.

MEV = experiment: microbe, parasite or virus in culture; assay type: cell-based; conditions: Measles morbillivirus, Vero 76, Vero76 cells
EBV = experiment: DNA quantitation assay for EBV; assay type: cell-based, Epstein-Barr virus; conditions: human gammaherpesvirus 4, Akata cells
Procedure: DNA Quantitation Assays for EBV and HHV-6B:
Assays for EBV were performed in Akata cells that were induced to undergo a lytic infection with goat anti-human IgG antibody by standard methods. Experimental compounds were diluted in plates. Akata cells were added to the plates and incubated. For HHV-6, compounds were serially diluted then uninfected HSB-2 or Molt-3 cells were added to each well. Infection was initiated by adding HHV-6A infected HSB-2 cells, or HHV-6B infected Molt-3 cells, and incubated for 7 d at 37° C. For all assays, denaturation buffer was added to each well to denature the DNA and an aliquot was aspirated through a nylon membrane. The membranes were then allowed to dry before equilibration in DIG. Specific digoxigenin (DIG)-labeled probes were prepared for each virus according to the manufacturer's protocol. Detection of specifically bound DIG probe was performed with anti-DIG antibody using the manufacturer's protocol. An image of the photographic film was captured and quantified and compound concentrations sufficient to reduce the accumulation of viral DNA by 50% (EC50), were interpolated from the experimental data.
Assays for EBV were performed in Akata cells that were induced to undergo a lytic infection with 50 μg/mL of a goat anti-human IgG antibody by standard methods. […]

JCV = experiment: qPCR assay for JCV; assay type: cell-based, JC virus; conditions: JC polyomavirus, 293TT cells
Procedure: qPCR Assays for BKV and JCV:
Primary evaluation of compounds against JC virus were also performed by methods similar to those for BK virus primary assays. Secondary assays against JCV were performed in COS7 cells by methods similar to those for BK virus to identify compounds that inhibited adsorption or penetration of the virus.
Primary evaluation of compounds against JC virus were also performed by methods similar to those for BK virus primary assays but were done in 293TT cells and utilized the 1-4 strain of JCV in 293TT cells. Viral DNA was quantified using primers 5′-[…]-3′ (SEQ ID No. 11) and 5′-[…]-3′ (SEQ ID No. 12) and probe 5′-6-FAM-[…]-TAMRA-3′ (SEQ ID No. 13) together with the plasmid pMP508 to provide a standard curve for absolute quantification. Secondary assays against JCV were performed in COS7 cells by methods similar to those for BK virus to identify compounds that inhibited adsorption or penetration of the virus.

Cc1nc(N)c2c(C(N)=O)cn([C@@H]3O[C@H](CO)[C@@H](O)[C@H]3O)c2n1 [Compound 1, 4-amino-7-((2R,3R,4S,5R)-3,4-dihydroxy-5-(hydroxymethyl)tetrahydrofuran-2-yl)-2-methyl-7H-pyrrolo[2,3-d]pyrimidine-5-carboxamide]
CC50 [1]: > 100 µM | viral titer (human norovirus): increased less than one order of magnitude | EC50 (MEV): > 100 µM | EC50 (EBV): 7.15 µM | EC50 (JCV): 0.46 µM
